Values after ≈ are worked out from the molar mass of the structure shown.
How the values were obtained:
Candida albicans 73/079 = experiment: Minimum Inhibitory Concentration (MIC) by broth dilution in microtitre tray; format: cell-based; conditions: inoculum 10^5 cells/ml, 37° C.
Protocol: (§1) The Minimum Inhibitory Concentration (MIC) was determined by diluting the test compound in a broth medium in a microtitre tray. The organisms, which had been grown previously in a broth medium, were diluted and added to the wells to provide a final inoculum of approximately 10^5 colony-formingunits per well. The trays were incubated at 37° C. and the turbidity of each well noted at intervals. The MIC was taken as the lowest concentration (in μg/ml) which prevented significant growth. |Minimum Inhibitory Concentration (μg/ml) |(determined after 2 and 3 days incubation) | *Inoculum 10^5 cells/ml | YNB: Yeast Nitrogen Base Broth | SAB: Sabouraud's Dextrose Broth.

[1] = tested on: Candida parapsilosis 937 A; experiment: as above; format: cell-based; conditions: inoculum 10^5 cells/ml, 37° C.
Protocol: as §1

[2] = 48 h, day 2, YNB (Yeast Nitrogen Base Broth)
[3] = 72 h, day 3, YNB (Yeast Nitrogen Base Broth)

MIC (Candida albicans 73/079; [2]): 1 µg/mL (≈ 1.1 µM)
MIC (Candida albicans 73/079; [3]): 2 µg/mL (≈ 2.2 µM)
MIC (Candida albicans 73/079; Candida albicans, 73/079, 48 h, day 2, SAB (Sabouraud's Dextrose Broth)): 1 µg/mL (≈ 1.1 µM)
MIC (Candida albicans 73/079; Candida albicans, 73/079, 72 h, day 3, SAB (Sabouraud's Dextrose Broth)): 1 µg/mL (≈ 1.1 µM)
MIC ([1]; 937A, 48 h, day 2, SAB (Sabouraud's Dextrose Broth)): 1 µg/mL (≈ 1.1 µM)
MIC ([1]; 937A, 72 h, day 3, SAB (Sabouraud's Dextrose Broth)): 2 µg/mL (≈ 2.2 µM)
MIC [1, 2]: 8 µg/mL (≈ 8.79 µM)
MIC [1, 3]: 8 µg/mL (≈ 8.79 µM)
Compound: C[C@@H]1[C@H](O)[C@@H](C)/C=C/C=C/C=C/C=C/C=C/C=C/C=C/[C@H](O[C@@H]2O[C@H](C)[C@@H](O)[C@H](N)[C@@H]2O)C[C@@H]2O[C@](O)(C[C@@H](O)C[C@@H](O)[C@H](O)CC[C@@H](O)C[C@@H](O)CC(=O)O[C@H]1C)C[C@H](O)[C@H]2CO [Example 4, 16-Decarboxy-16-hydroxymethylamohotericin B]

Reference: US5100876A, “16-decarboxy-16-hydroxy derivatives of amphotericin B” (Beecham Group p.l.c., priority 1988, dated 1992)
